A word on the IC50: it is the concentration that gives 50% inhibition. The Ki is a dissociation constant, usually derived from enzyme kinetics or from competition with a known ligand.

The record followed here is ChEMBL document CHEMBL1909046, “DrugMatrix in vitro pharmacology data”.

Data set [1] addresses T1, Receptor-type tyrosine-protein phosphatase C (Homo sapiens, UniProt P08575).
T1 sequence (P08575 whole entry): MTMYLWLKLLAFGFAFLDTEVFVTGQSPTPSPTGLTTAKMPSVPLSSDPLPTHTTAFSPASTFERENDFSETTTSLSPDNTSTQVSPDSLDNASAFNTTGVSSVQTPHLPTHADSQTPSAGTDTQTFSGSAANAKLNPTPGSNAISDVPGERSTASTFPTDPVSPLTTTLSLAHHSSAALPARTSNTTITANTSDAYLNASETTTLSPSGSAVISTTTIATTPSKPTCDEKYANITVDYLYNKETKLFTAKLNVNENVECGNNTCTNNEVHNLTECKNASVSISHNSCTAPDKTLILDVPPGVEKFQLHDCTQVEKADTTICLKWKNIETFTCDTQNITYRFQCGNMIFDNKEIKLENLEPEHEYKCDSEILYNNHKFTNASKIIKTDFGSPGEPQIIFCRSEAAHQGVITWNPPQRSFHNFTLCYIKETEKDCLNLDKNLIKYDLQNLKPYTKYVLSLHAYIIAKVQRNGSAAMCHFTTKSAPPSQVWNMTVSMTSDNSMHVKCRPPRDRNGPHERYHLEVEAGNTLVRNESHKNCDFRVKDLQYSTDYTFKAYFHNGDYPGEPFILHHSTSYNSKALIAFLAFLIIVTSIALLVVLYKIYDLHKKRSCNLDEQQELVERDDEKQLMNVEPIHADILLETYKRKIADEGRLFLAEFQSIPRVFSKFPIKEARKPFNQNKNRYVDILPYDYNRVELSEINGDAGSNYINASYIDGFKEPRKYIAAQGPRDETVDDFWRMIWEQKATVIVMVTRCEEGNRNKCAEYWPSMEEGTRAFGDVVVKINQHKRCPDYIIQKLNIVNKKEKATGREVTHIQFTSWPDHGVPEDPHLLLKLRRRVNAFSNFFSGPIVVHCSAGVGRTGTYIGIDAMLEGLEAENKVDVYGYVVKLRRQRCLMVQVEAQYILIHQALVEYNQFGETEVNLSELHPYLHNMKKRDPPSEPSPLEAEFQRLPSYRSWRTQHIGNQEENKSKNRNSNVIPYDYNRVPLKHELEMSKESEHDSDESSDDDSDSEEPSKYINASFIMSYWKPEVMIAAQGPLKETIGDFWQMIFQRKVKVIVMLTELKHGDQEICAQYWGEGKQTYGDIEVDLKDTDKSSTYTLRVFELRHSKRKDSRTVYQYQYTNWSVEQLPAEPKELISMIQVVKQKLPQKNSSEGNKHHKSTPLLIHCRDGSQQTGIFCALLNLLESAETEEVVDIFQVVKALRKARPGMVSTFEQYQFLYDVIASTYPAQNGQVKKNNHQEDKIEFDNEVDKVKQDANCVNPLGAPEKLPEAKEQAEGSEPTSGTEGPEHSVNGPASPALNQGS
Set-up: species or system Escherichia coli.

Data set [2] can be described thus: DRUGMATRIX: GABAA, Chloride Channel, TBOB radioligand binding (ligand: [3H] TBOB). The data set is classed as cell membranes, Rattus norvegicus, Wistar, Cerebral cortex, Membrane. The note with it: Not Active = under 50% inhibition at 10 µM.
The target of data set [3] is Melanocortin receptor 4 (Homo sapiens, UniProt P32245). The data set is classed as cell membranes, Membrane. The note with it: hek293. Note: in other assays of this panel Not Active means under 50% inhibition at 10 µM.
For data set [4], the target named is Insulin receptor (Rattus norvegicus, UniProt P15127). The data set is classed as cell membranes, Wistar, Liver, Membrane. Note: in other assays of this panel Not Active means under 50% inhibition at 10 µM.
Data set [5] is described as follows: DRUGMATRIX: Phosphodiesterase PDE3 enzyme inhibition (substrate: [3H]cAMP + cAMP). Type of data set: tissue-based, Homo sapiens. As to conditions: platelet, Not Active = under 50% inhibition at 10 µM.
The target in data set [6] is T2, Estrogen receptor (Homo sapiens, UniProt P03372). Note: in other assays of this panel Not Active means under 50% inhibition at 10 µM.
T2 sequence (P03372 whole entry): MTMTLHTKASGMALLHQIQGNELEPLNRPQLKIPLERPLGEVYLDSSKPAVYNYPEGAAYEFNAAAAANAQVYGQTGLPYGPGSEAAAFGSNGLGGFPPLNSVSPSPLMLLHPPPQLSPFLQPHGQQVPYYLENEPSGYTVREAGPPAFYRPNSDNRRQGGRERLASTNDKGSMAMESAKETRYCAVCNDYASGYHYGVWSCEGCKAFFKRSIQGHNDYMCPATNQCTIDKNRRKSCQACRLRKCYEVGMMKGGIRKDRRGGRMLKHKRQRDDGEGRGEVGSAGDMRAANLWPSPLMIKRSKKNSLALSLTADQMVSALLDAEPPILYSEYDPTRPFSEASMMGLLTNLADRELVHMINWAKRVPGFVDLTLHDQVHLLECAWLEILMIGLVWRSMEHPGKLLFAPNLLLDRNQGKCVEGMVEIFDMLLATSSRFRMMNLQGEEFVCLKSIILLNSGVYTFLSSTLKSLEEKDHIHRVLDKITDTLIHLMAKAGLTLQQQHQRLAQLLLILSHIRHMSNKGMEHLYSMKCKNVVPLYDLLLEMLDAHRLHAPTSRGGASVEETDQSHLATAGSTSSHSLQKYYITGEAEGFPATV
The note with it: sf9.

Data set [7] addresses Receptor tyrosine-protein kinase erbB-2 (Homo sapiens, UniProt P04626). Kind of data set: biochemical. The data set is classed as cell-based, Insect cells.
Data set [8] addresses Cytochrome P450 2D6 (Homo sapiens, UniProt P10635). The note with it: bti-tn-5b1-4.

Sequence of Cytochrome P450 2D6 (P10635 whole entry): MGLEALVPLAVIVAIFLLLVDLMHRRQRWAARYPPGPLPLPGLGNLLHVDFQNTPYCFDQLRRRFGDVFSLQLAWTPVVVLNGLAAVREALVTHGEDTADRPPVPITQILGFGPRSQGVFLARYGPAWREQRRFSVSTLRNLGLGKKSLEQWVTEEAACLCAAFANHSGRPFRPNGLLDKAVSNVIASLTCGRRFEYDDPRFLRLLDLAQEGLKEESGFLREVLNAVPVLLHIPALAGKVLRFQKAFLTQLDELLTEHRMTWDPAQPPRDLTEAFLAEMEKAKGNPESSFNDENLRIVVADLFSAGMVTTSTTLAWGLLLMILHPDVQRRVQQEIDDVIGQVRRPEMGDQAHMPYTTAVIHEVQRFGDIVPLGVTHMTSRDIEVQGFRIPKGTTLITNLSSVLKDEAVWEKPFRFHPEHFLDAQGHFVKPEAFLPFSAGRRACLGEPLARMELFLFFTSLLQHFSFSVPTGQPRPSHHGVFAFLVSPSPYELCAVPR
Sequence of Melanocortin receptor 4 (P32245 whole entry): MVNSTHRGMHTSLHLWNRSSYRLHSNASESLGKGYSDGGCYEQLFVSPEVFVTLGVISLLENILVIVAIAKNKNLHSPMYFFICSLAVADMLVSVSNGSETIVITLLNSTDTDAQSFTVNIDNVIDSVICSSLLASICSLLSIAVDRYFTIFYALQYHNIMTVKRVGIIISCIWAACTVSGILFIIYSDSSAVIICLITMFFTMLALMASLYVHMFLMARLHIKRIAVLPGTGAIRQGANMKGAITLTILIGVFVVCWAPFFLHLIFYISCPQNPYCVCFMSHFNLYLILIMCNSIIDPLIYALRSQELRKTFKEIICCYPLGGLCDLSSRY
Sequence of Insulin receptor (P15127 27-759 limits assumed): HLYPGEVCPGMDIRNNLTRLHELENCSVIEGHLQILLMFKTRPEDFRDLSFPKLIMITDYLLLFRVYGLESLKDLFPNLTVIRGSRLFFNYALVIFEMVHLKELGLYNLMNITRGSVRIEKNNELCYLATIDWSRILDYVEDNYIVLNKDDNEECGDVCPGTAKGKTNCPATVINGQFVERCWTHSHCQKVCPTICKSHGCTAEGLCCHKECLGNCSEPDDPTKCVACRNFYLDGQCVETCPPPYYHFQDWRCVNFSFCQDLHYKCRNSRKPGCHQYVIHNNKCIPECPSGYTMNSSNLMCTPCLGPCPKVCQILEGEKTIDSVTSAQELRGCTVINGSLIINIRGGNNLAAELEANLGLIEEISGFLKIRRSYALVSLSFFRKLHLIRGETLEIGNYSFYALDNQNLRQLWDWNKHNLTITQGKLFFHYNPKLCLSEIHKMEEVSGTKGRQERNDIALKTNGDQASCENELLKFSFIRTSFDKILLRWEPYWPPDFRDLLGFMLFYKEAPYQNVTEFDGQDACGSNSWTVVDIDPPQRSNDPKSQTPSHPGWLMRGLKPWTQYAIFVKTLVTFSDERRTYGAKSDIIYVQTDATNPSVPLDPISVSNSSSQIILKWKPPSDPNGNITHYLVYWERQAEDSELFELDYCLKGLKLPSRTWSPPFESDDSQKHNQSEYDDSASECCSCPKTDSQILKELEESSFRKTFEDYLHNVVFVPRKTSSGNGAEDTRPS
Sequence of Insulin receptor (P15127 764-1383 limits assumed): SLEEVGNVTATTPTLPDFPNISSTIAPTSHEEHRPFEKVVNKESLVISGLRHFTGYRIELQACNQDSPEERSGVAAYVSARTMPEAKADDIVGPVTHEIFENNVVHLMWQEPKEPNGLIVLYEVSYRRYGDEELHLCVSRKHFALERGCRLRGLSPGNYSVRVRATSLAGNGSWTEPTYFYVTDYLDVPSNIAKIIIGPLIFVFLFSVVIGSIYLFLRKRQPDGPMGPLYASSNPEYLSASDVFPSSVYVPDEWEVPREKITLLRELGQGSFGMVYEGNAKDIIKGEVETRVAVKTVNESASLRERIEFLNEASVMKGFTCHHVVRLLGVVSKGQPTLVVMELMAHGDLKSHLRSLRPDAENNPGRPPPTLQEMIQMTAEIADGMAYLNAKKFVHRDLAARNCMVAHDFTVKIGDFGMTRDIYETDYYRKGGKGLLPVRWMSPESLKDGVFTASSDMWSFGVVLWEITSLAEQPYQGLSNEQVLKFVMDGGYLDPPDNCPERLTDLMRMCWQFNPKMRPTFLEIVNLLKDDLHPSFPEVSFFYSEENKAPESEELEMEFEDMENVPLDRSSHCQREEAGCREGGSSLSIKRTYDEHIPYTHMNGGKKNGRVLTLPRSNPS
Sequence of Receptor tyrosine-protein kinase erbB-2 (P04626 whole entry): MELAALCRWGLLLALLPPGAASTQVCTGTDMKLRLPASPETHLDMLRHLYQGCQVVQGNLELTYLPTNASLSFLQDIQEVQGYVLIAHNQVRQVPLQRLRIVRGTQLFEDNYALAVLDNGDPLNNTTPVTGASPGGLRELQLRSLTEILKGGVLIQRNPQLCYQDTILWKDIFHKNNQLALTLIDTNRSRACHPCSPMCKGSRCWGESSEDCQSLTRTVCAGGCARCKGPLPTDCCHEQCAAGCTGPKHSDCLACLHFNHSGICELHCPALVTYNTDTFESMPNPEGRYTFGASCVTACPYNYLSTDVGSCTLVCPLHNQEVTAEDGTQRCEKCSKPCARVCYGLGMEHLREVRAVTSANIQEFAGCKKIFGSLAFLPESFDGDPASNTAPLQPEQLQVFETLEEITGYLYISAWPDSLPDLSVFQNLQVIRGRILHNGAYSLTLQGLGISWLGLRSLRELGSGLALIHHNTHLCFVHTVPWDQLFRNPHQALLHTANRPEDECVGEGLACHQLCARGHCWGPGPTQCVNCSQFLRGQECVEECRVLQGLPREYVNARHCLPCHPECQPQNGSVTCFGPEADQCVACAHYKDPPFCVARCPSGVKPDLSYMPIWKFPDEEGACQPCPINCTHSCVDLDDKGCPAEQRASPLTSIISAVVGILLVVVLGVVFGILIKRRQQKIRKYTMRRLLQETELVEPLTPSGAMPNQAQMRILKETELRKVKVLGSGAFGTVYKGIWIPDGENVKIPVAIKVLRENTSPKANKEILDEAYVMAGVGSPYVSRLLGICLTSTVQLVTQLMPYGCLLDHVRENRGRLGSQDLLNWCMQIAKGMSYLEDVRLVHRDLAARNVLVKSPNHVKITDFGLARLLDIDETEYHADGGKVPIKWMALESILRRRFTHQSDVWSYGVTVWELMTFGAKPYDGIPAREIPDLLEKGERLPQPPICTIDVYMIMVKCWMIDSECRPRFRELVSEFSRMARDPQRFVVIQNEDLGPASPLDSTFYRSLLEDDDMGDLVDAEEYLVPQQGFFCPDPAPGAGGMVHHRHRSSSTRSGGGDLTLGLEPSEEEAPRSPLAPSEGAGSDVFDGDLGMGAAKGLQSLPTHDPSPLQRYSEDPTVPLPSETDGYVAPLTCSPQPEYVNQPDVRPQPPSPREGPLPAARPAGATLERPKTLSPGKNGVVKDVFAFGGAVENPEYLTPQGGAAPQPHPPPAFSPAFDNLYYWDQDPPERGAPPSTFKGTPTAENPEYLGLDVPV

In the case of `CCOc1nc2cccc(C(=O)O)c2n1Cc1ccc(-c2ccccc2-c2nnn[nH]2)cc1`, the IC50 result in data set [1], in data set [2], in data set [3], in data set [4], in data set [5] and in data set [6] was “Not Active” in each case. For the same compound, in data set [7] (read-out: IC50), the IC50 came to 5.95 µM. Besides, the Ki result in data set [2] and in data set [5] was “Not Active” throughout.

As to `CC[C@H]1[C@@H]2C[C@H]3[C@@H]4N(C)c5ccccc5[C@]45C[C@@H]([C@@H]2[C@H]5O)N3[C@@H]1O` [AJMALINE], the IC50 entry in data set [1], in data set [2], in data set [3], in data set [4], in data set [5] and in data set [6] was “Not Active” throughout. The IC50 entry in data set [7] (insect cells) is recorded as “Not Active”. Also, the Ki result in data set [2] and in data set [5] was “Not Active” in each case.

On to `CN1CCN(C(c2ccccc2)c2ccccc2)CC1` [CYCLIZINE], for which the IC50 result in data set [1], in data set [2], in data set [3], in data set [4], in data set [5] and in data set [6] was “Not Active” each time. Further, the IC50 entry in data set [7] (insect cells) is given as “Not Active”. Besides, the inhibition constant (Ki) entry in data set [2] and in data set [5] was “Not Active” each time.

On to `CC(O)(P(=O)(O)O)P(=O)(O)O` [ETIDRONIC ACID], for which the IC50 result in data set [1], in data set [2], in data set [8], in data set [3], in data set [4] and in data set [5] was “Not Active” throughout. Moreover, in data set [7] (insect cells), the IC50 result is “Not Active”. For the same compound, the Ki entry in data set [2], in data set [8] and in data set [5] was “Not Active” throughout.

As for `O=C(O)P(=O)(O)O` [FOSCARNET], the IC50 entry in data set [1], in data set [2], in data set [8], in data set [3], in data set [4] and in data set [5] was “Not Active” throughout. Also, the half-inhibitory concentration (IC50) result in data set [7] (insect cells) is recorded as “Not Active”. In addition, the Ki result in data set [2], in data set [8] and in data set [5] was “Not Active” in each case.

For `O=c1c(-c2ccc(O)cc2)coc2cc(O)cc(O)c12` [GENISTEIN], the IC50 entry is “Not Active” in data set [1]; “Not Active” in data set [2]; “Not Active” in data set [8]; “Not Active” in data set [3]; “Not Active” in data set [4]; 11 µM in data set [5] (read-out: IC50). In addition, the IC50 result in data set [7] (insect cells) is “Not Active”. For the same compound, the Ki entry in data set [2] and in data set [8] was “Not Active” in each case.

`C[N+](C)(C)C[C@H](O)CC(=O)[O-]` [LEVOCARNITINE]: the IC50 result in data set [1], in data set [2], in data set [8], in data set [3], in data set [4] and in data set [5] was “Not Active” in each case. In data set [7] (insect cells), the IC50 entry is “Not Active”. For the same compound, the inhibition constant (Ki) entry in data set [2], in data set [8] and in data set [5] was “Not Active” in each case.

In the case of `C[C@H]1COc2c(N3CCN(C)CC3)c(F)cc3c(=O)c(C(=O)O)cn1c23.C[C@H]1COc2c(N3CCN(C)CC3)c(F)cc3c(=O)c(C(=O)O)cn1c23.O` [LEVOFLOXACIN], the IC50 entry in data set [1], in data set [2], in data set [8], in data set [3], in data set [4] and in data set [5] was “Not Active” throughout. The IC50 entry in data set [7] (insect cells) was “Not Active”. Besides, the Ki entry in data set [2], in data set [8] and in data set [5] was “Not Active” in each case.

For `CN(C)C(=N)NC(=N)N` [METFORMIN], the IC50 result in data set [1], in data set [2], in data set [8], in data set [3], in data set [4] and in data set [5] was “Not Active” in each case. The IC50 result in data set [7] (insect cells) is “Not Active”. Moreover, the Ki entry in data set [2], in data set [8] and in data set [5] was “Not Active” throughout.

For the compound `CS(=O)(=O)Nc1ccc([N+](=O)[O-])cc1Oc1ccccc1` [NIMESULIDE], the IC50 entry in data set [1], in data set [2], in data set [8], in data set [3], in data set [4] and in data set [5] was “Not Active” throughout. The IC50 entry in data set [7] (insect cells) is listed as “Not Active”. Also, the Ki entry in data set [2], in data set [8] and in data set [5] was “Not Active” throughout.

On to `COc1ccc2c(c1OC)C(=O)O[C@@H]2[C@H]1c2c(cc3c(c2OC)OCO3)CCN1C` [NOSCAPINE], for which the IC50 result in data set [1], in data set [2], in data set [8], in data set [3], in data set [4] and in data set [5] was “Not Active” each time. Besides, the IC50 entry in data set [7] (insect cells) is “Not Active”. The Ki result in data set [2], in data set [8] and in data set [5] was “Not Active” each time.

Regarding `NC(=O)N1c2ccccc2CC(=O)c2ccccc21` [OXCARBAZEPINE], the IC50 result in data set [1], in data set [2], in data set [8], in data set [3], in data set [4] and in data set [5] was “Not Active” each time. For the same compound, the IC50 result in data set [7] (insect cells) is on record as “Not Active”. Besides, the Ki result in data set [2], in data set [8] and in data set [5] was “Not Active” throughout.

In the case of `CCN(CC)CCNC(=O)c1ccc(N)cc1` [PROCAINAMIDE], the IC50 result in data set [1], in data set [2], in data set [8], in data set [3], in data set [4] and in data set [5] was “Not Active” each time. Besides, the IC50 entry in data set [7] (insect cells) was “Not Active”. The Ki entry in data set [2], in data set [8] and in data set [5] was “Not Active” in each case.

For the compound COLISTIN, the IC50 result in data set [1] was “Not Active”; in data set [2], “Not Active”; in data set [8], “Not Active”; in data set [3] (read-out: IC50), 0.841 µM; in data set [4] it was “Not Active”; in data set [5] it was “Not Active”. Also, in data set [6], the IC50 result was “Not Active”. The Ki result in data set [1] is “Not Active”; in data set [2], “Not Active”; in data set [8], “Not Active”; in data set [3] (read-out: Ki), 0.809 µM; in data set [4], “Not Active”; in data set [5], “Not Active”. Also, the Ki entry in data set [6] was “Not Active”.
